According to patent US12661355B2, “Compounds and methods for inducing UCP1 expression” (The Regents of the University of California, priority 2020, dated 2026):

Columns and labels:
AKAP1 = target: T1, AKAP1 (Mus musculus, UniProt O08715); experiment: Drug Affinity Responsive Target Stability (DARTS) in BAT or brown adipocyte extracts, AKAP1; type: binding; conditions: 1 h; for effect on AKAP1 (pronase susceptibility): mouse brown adipocyte extracts, 20 μM (CL316,243 20 nM)
T1 construct: from tissue; host or cells: mouse brown adipose tissue (BAT) lysate; also mouse brown adipocyte extracts
T1 sequence (O08715 30-857): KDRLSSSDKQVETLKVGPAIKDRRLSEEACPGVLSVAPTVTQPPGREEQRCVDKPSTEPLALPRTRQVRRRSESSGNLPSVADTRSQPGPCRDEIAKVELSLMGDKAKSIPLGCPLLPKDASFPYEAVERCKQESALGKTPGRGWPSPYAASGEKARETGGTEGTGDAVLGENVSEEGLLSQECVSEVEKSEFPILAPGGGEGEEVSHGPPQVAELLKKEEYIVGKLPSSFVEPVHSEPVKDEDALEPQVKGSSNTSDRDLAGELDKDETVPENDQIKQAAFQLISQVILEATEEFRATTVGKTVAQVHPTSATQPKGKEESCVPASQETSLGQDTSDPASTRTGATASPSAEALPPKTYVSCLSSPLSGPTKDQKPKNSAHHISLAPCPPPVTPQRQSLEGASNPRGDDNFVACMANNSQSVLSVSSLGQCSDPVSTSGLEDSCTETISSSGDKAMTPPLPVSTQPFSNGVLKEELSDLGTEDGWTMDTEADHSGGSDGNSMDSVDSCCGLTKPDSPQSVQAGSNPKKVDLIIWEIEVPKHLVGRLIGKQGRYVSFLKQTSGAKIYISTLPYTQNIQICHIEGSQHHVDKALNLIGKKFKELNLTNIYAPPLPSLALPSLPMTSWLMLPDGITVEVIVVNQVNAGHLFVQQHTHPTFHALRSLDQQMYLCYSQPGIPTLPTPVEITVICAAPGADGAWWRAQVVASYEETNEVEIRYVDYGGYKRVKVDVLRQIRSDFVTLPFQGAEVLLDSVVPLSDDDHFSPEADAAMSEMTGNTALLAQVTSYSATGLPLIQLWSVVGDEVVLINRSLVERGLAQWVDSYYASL
Procedure: […] assays were performed according to known methods. Briefly, BAT or cells within a 10 cm dish were lysed with 600 μl M-PER buffer containing protease and phosphatase inhibitors. Debris was pelleted by centrifugation at 18,000 g for 10 min at 4° C., and the lysates were harvested and supplemented with TNC buffer (50 mM Tris-HCl, 50 mM NaCl, 10 mM CaCl2). The lysates were split into two tubes and treated with either vehicle or 20 μM Z160 for 1 h at room temperature. For experiment with BAT, 100 μg of lysate was incubated with different Z160 concentrations. Different concentrations of pronase (from 1:100 to 1:10,000 dilution from a 1.25 mg/ml pronase stock) were incubated with the samples for 30 min at room temperature and the reaction was stopped with SDS loading buffer followed immediately by heating at 70° C. for 10 min. Protein lysates were separated by SDS-PAGE and transferred to a nitrocellulose membrane. After blocking in 5% milk, 0.1% Tween-20 in Tris-buffered saline (TBS), primary antibody was incubated overnight at 4° C. in 5% bovine serum albumin and 0.1% Tween-20 in TBS. Primary antibodies against AKAP1 (5203, Cell Signaling), AKAP13 (39715, One World Lab), GAPDH (GTX100118, Genetex), OPA1 (39557, One World Lab), PKA C-α (4782, Cell Signaling), PKA RII-β (ab75993, Abcam), were used at 1:2000. A goat anti-rabbit secondary antibody (sc-2030, Santa Cruz Biotechnology, Inc) was used at a 1:10,000 dilution for 1 h at room temperature in 5% milk and 0.1% Tween-20 in TBS.
The PKA tetramer consists of two catalytic and two regulatory subunits. In the mouse, these are catalytic subunits C-α and C-β, and regulatory subunits RI and RII, each with α and β isoforms (RI-α, RI-β, RII-α, RII-β). PKA is also bound to a family of anchoring proteins, A-kinase anchoring proteins (AKAPs), which allow the compartmentalization of cAMP signaling. To investigate whether Z160 binds PKA complex proteins, two techniques were applied both of which rely on ligand-induced alterations in protein stability: Cellular Thermal Shift Assay (CETSA) and Drug Affinity Responsive Target Stability (DARTS). CETSA is based on the principle that ligand binding will change the temperature at which a protein starts to unfold and aggregate, while DARTS relies on the protection of a protein from proteolysis upon specific binding to a small molecule.
To provide further evidence for an interaction between Z160 and AKAP1, DARTS assays were employed. Lysates from brown fat were treated with different Z160 concentrations for 1 h followed by pronase digestion and immunoblotting. […] The effect of Z160 on AKAP1 was confirmed using mouse brown adipocyte extracts (FIG. 15A).

[1] = system: immortalized brown adipocytes; experiment: Global gene expression analysis (microarray, DAVID functional annotation) in immortalized brown adipocytes; type: cell-based, mouse
Procedure: Mouse RNA levels were measured by qPCR according to known methods. Data were normalized to B2m and Tbp reference genes. Human RNA was extracted using an RNA Mini Plus kit (Zymo) and gene expression determined by Taqman assay. The 1-step qPCR was run on a QuantStudio 12K Flex Real Time PCR System (ThermoFisher) using the following protocol: 50° C. for 5 minutes, 95° C. for 20 seconds, 40 cycles of 95° C. for 15 seconds and 60° C. for 60 seconds. Data were normalized to PPIA and PSMB2 reference genes. For global gene expression analysis, RNA isolated from brown adipocytes treated with compounds as indicated (four biological replicates) was hybridized to Illumina mouse Ref 8 V2.0 bead chips at the University of California, Los Angeles Neuroscience Genomics Core as previously described. Data were processed with GenomeStudio V2011.1 using the quantile normalization, background subtraction, and a present call of P<0.05.
To assess the effects of Z160 on global transcription in mouse brown adipocytes, microarray analysis of RNA isolated from immortalized brown adipocytes treated with either vehicle or Z160 was performed. […] The results of the microarray were corroborated using qPCR for representative genes from each electron transport chain complex (FIG. 5B).

[2] = genes >1.5-fold down-regulated, DAVID
[3] = genes >1.5-fold up-regulated, DAVID

| Structure (SMILES) | effect on AKAP1 (pronase susceptibility) (AKAP1) | Genes, GO cellular component Down: Basement membrane [1, 2] | Genes, GO cellular component Down: Cell surface [1, 2] | Genes, GO cellular component Down: Cytoplasm [1, 2] | Genes, GO cellular component Down: Extracellular exosome [1, 2] | Genes, GO cellular component Down: Extracellular region [1, 2] | Genes, GO cellular component Down: Extracellular space [1, 2] | Genes, GO cellular component Down: Focal adhesion [1, 2] | Genes, GO cellular component Down: Proteinaceous extracellular matrix [1, 2] | Genes, GO cellular component Up: Mitochondrial inner membrane [1, 3] | Genes, GO cellular component Up: Mitochondrion [1, 3] | Ucp1 increase (microarray) ([1]; microarray, vs vehicle) [fold] | probes down-regulated by at least 1.5-fold ([1]; microarray, vs vehicle) [probes] | probes up-regulated by at least 1.5-fold ([1]; microarray, vs vehicle) [probes] | pronase susceptibility of AKAP1 (AKAP1; brown fat lysates, pronase 1:4000) |
| --- | --- | --- | --- | --- | --- | --- | --- | --- | --- | --- | --- | --- | --- | --- | --- |
| O=C(CSc1nc2ccccc2c(=O)[nH]1)Nc1ccc2c(c1)OCCO2 [AST070, N-(2,3-dihydro-1,4-benzodioxin-6-yl)-2-[(4-oxo-3,4-dihydroquinazolin-2-yl)sulfanyl]acetamide] | effect of AST070 or Z160 on AKAP1 | – | – | – | – | – | – | – | – | – | – | – | – | – | – |
| COc1ccc(NC(=O)CSc2nc3ccccc3c(=O)[nH]2)c(OC)c1 [Z160] | confirmed | 17 | 45 | 178 | 119 | 86 | 72 | 25 | 35 | 27 | 88 | 2.5 | 504 | 581 | altered pronase susceptibility |
